What was measured:
[1] = target: T1, aryl hydrocarbon receptor (AhR) (Homo sapiens, UniProt P35869); experiment: AhR reporter gene assay (aryl hydrocarbon receptor antagonist activity, DRE-Luc HepG2 cells, TCDD-stimulated luciferase); assay type: cell-based
T1 construct: DRE-Luc HepG2 cells subcultured in a 225 cm^2 flask; endogenous in cells; host or cells: HepG2 (ATCC), stably transfected with the reporter hCYP1A1/pGL4.27 (DRE-Luc HepG2)
T1 sequence (P35869 11-848): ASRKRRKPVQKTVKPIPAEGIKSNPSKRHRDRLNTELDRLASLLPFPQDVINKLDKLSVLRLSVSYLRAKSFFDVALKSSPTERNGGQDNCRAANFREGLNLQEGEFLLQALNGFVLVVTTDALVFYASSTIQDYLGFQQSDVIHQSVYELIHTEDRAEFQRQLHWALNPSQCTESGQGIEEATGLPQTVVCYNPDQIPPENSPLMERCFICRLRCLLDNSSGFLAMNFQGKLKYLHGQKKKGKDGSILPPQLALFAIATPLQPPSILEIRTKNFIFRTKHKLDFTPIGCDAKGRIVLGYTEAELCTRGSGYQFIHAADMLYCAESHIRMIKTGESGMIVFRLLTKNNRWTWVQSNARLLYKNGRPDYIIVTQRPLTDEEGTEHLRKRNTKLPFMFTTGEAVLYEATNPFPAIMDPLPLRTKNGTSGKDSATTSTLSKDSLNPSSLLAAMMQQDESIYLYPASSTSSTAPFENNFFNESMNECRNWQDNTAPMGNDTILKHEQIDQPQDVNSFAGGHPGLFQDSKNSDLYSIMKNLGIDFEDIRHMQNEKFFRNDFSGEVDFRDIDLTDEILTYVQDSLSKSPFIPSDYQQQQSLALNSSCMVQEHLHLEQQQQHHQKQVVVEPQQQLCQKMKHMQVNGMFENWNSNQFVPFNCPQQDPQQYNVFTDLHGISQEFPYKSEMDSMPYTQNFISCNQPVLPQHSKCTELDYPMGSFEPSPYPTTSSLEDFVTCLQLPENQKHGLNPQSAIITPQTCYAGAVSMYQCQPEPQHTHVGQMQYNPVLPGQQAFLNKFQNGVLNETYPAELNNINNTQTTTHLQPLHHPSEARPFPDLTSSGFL
How it was run: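 HepG2 cells stably carrying a human CYP1A1 promoter/DRE-driven luciferase reporter were pretreated with compound for 24 h at 37°C. TCDD (5×10^−10 M in the added solution) was then added for a further 24 h. Firefly luciferase luminescence was read as the measure of antagonism.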

[2] = system: immortalized megakaryocyte line (SeV2-MKCL); experiment: Platelet production: static culturing of immortalized megakaryocyte line; assay type: cell-based; details: compound final concentration 0.1 μM, static culturing 6 to 7 days, control (DMSO) set to 1; platelets = CD41, CD42b and CD42a-positive cells
How it was run: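 SeV2-MKCL cells, washed free of doxycycline to stop forced expression, seeded at 1×10^5 cells/mL in IMDM-based medium with compound (final 0.1 μM) or DMSO, static culture 6–7 days, 37° C., 5% CO2. CD41/CD42a/CD42b-positive platelets counted by bead-corrected flow cytometry; platelets per megakaryocyte expressed as fold over DMSO control.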

## Cc1cncc(-c2nc(NCCc3c[nH]c4ccccc34)c3nc4n(c3n2)C(C)(C)CS4)c1 [Example 96]
[1]
  IC50: 39 nM
[2]
  Static (vs veh): fold increase of platelet production efficiency (PLT/MK): 2.7

## CC1(C)COc2nc3c(NCCc4ccc(O)c(-c5cccc(C#N)c5)c4)nc(-c4cncc(C#N)c4)nc3n21 [Example 59]
[1]
  IC50: 2.5 nM
[2]
  Static (vs veh): fold increase of platelet production efficiency (PLT/MK): 5.7

## CC1(C)COc2nc3c(NCCc4ccc(O)c(-c5cc(C#N)ccc5F)c4)nc(-c4cncc(F)c4)nc3n21 [Example 54]
[1]
  IC50: 4.1 nM
[2]
  Static (vs veh): fold increase of platelet production efficiency (PLT/MK): 5.9

## Cc1cncc(-c2cc(CCNc3nc(-c4cncc(F)c4)nc4c3nc3n4C(C)(C)CS3)ccc2O)c1 [Example 73]
[1]
  IC50: 7.3 nM
[2]
  Static (vs veh): fold increase of platelet production efficiency (PLT/MK): 7.9

## CC1(C)COc2nc3c(NCCc4ccc(O)c(-c5cccc(F)c5)c4)nc(-c4cncc(C#N)c4)nc3n21 [Example 36]
[1]
  IC50: 0.7 nM
[2]
  Static (vs veh): fold increase of platelet production efficiency (PLT/MK): 2.7

## Cc1ccccc1-c1cc(CCNc2nc(-c3cncc(F)c3)nc3c2nc2n3C(C)(C)CO2)ccc1O [Example 40]
[1]
  IC50: 40 nM
[2]
  Static (vs veh): fold increase of platelet production efficiency (PLT/MK): 9.8

## CC1(C)COc2nc3c(NCCc4ccc(O)c(-c5cccc(F)c5)c4)nc(-c4cncc(F)c4)nc3n21 [Example 3]
[1]
  IC50: 2.9 nM
[2]
  Static (vs veh): fold increase of platelet production efficiency (PLT/MK): 6.8

## CC1(C)COc2nc3c(NCCc4ccc(O)c(-c5cccc(Cl)c5)c4)nc(-c4cncc(F)c4)nc3n21 [Example 6]
[1]
  IC50: 10 nM
[2]
  Static (vs veh): fold increase of platelet production efficiency (PLT/MK): 3.7

## Cc1cncc(-c2nc(NCCc3ccc(O)c(-c4cccc(F)c4)c3)c3nc4n(c3n2)C(C)(C)CO4)c1 [Example 24]
[1]
  IC50: 3.9 nM
[2]
  Static (vs veh): fold increase of platelet production efficiency (PLT/MK): 7.7

## Cc1cncc(-c2nc(NCCc3ccc(O)c(-c4ccccc4F)c3)c3nc4n(c3n2)C(C)(C)CS4)c1 [Example 26]
[1]
  IC50: 1 nM
[2]
  Static (vs veh): fold increase of platelet production efficiency (PLT/MK): 5.0

## CC1(C)COc2nc3c(NCCc4ccc(O)c(-c5csc6ccccc56)c4)nc(-c4cncc(F)c4)nc3n21 [Example 35]
[1]
  IC50: 12 nM
[2]
  Static (vs veh): fold increase of platelet production efficiency (PLT/MK): 6.0

## CC1(C)COc2nc3c(NCCc4ccc(O)c(-c5ccc(Cl)cc5)c4)nc(-c4cncc(F)c4)nc3n21 [Example 7]
[1]
  IC50: 9.1 nM
[2]
  Static (vs veh): fold increase of platelet production efficiency (PLT/MK): 7.3

## CC1(C)C[S+]([O-])c2nc3c(NCCc4ccc(O)c(-c5cccc(F)c5)c4)nc(-c4cncc(F)c4)nc3n21 (stereo not drawn) [Example 21]
[1]
  IC50: 0.033 nM
[2]
  Static (vs veh): fold increase of platelet production efficiency (PLT/MK): 4.7

## C[C@@H]1CSc2nc3c(NCCc4ccc(O)c(-c5ccccc5)c4)nc(-c4cncc(F)c4)nc3n21 [Example 49]
[1]
  IC50: 0.36 nM
[2]
  Static (vs veh): fold increase of platelet production efficiency (PLT/MK): 5.5

## C[C@@H]1CSc2nc3c(NCCc4ccc(O)c(-c5ccccc5F)c4)nc(-c4cncc(C#N)c4)nc3n21 [Example 39]
[1]
  IC50: 1.2 nM
[2]
  Static (vs veh): fold increase of platelet production efficiency (PLT/MK): 4.3

## CC1(C)COc2nc3c(NCCc4c[nH]c5ccccc45)nc(-c4cncc(C#N)c4)nc3n21 [Example 92]
[1]
  IC50: 33 nM
[2]
  Static (vs veh): fold increase of platelet production efficiency (PLT/MK): 2.6

## CC1(C)COc2nc3c(NCCc4c[nH]c5ccccc45)nc(-c4ccc5ncnn5c4)nc3n21 [Example 111]
[1]
  IC50: 40 nM
[2]
  Static (vs veh): fold increase of platelet production efficiency (PLT/MK): 7.0

## CC1(C)COc2nc3c(NCCc4ccc(O)c(-c5ccc(C#N)cc5)c4)nc(-c4cncc(F)c4)nc3n21 [Example 18]
[1]
  IC50: 6.9 nM
[2]
  Static (vs veh): fold increase of platelet production efficiency (PLT/MK): 7.3

## C[C@H]1CSc2nc3c(NCCc4ccc(O)c(-c5cccc(F)c5)c4)nc(-c4cncc(F)c4)nc3n21 [Example 31]
[1]
  IC50: 0.46 nM
[2]
  Static (vs veh): fold increase of platelet production efficiency (PLT/MK): 5.9

## C[C@@H]1CSc2nc3c(NCCc4ccc(O)c(-c5ccccc5F)c4)nc(-c4cncc(F)c4)nc3n21 [Example 28]
[1]
  IC50: 0.4 nM
[2]
  Static (vs veh): fold increase of platelet production efficiency (PLT/MK): 9.7

## CC1(C)COc2nc3c(NCCc4ccc(O)c(-c5cncc(F)c5)c4)nc(-c4cncc(F)c4)nc3n21 [Example 43, 2-(5-fluoropyridin-3-yl)-4-[2-[[2-(5-fluoropyridin-3-yl)-8,8-dimethyl-7H-purino[8,9-b][1,3]oxazol-4-yl]amino]ethyl]phenol]
[1]
  IC50: 26 nM
[2]
  Static (vs veh): fold increase of platelet production efficiency (PLT/MK): 7.1

## CC1(C)COc2nc3c(NCCc4ccc(O)c(-c5cccc(C#N)c5)c4)nc(-c4cncc(C(F)F)c4)nc3n21 [Example 62, 3-[5-[2-[[2-[5-(difluoromethyl)pyridin-3-yl]-8,8-dimethyl-7H-purino[8,9-b][1,3]oxazol-4-yl]amino]ethyl]-2-hydroxyphenyl]benzonitrile]
[1]
  IC50: 1.9 nM
[2]
  Static (vs veh): fold increase of platelet production efficiency (PLT/MK): 5.1

## CC1(C)COc2nc3c(NCCc4ccc(O)c(-c5cccc(C#N)c5)c4)nc(-c4ccnc(F)c4)nc3n21 [Example 64]
[1]
  IC50: 5.7 nM
[2]
  Static (vs veh): fold increase of platelet production efficiency (PLT/MK): 3.7

## CC1(C)COc2nc3c(NCCc4ccc(O)c(-c5cccc(C#N)c5F)c4)nc(-c4cncc(C#N)c4)nc3n21 [Example 67]
[1]
  IC50: 2.4 nM
[2]
  Static (vs veh): fold increase of platelet production efficiency (PLT/MK): 2.9

## CC1(C)COc2nc3c(NCCc4c[nH]c5ccccc45)nc(-c4cccc(F)c4)nc3n21 [Example 85]
[1]
  IC50: 27 nM
[2]
  Static (vs veh): fold increase of platelet production efficiency (PLT/MK): 6.1

## CC1(C)COc2nc3c(NCCc4ccc(O)c(-c5cc(F)cc(C#N)c5)c4)nc(-c4cncc(C#N)c4)nc3n21 [Example 69]
[1]
  IC50: 13 nM
[2]
  Static (vs veh): fold increase of platelet production efficiency (PLT/MK): 4.7

## Cc1cncc(-c2cc(CCNc3nc(-c4cncc(F)c4)nc4c3nc3n4[C@H](C)CS3)ccc2O)c1 [Example 74]
[1]
  IC50: 4.7 nM
[2]
  Static (vs veh): fold increase of platelet production efficiency (PLT/MK): 3.5

## CC1(C)COc2nc3c(NCCc4c[nH]c5ccccc45)nc(-c4cccnc4)nc3n21 [Example 94]
[1]
  IC50: 39 nM
[2]
  Static (vs veh): fold increase of platelet production efficiency (PLT/MK): 2.6

## CC1(C)COc2nc3c(NCCc4ccc(O)c(-c5c(F)cccc5F)c4)nc(-c4cncc(F)c4)nc3n21 [Example 44]
[1]
  IC50: 3.5 nM
[2]
  Static (vs veh): fold increase of platelet production efficiency (PLT/MK): 3.4

## C[C@@H]1CSc2nc3c(NCCc4ccc(O)c(-c5ccccc5)c4)nc(-c4cncc(C#N)c4)nc3n21 [Example 50]
[1]
  IC50: 0.7 nM
[2]
  Static (vs veh): fold increase of platelet production efficiency (PLT/MK): 6.6
